{"source": "patent US20130116263A1", "about": "“PAK INHIBITORS FOR THE TREATMENT OF CELL PROLIFERATIVE DISORDERS” (AFRAXIS, INC., priority 2011, published 2013)", "format_in_all_cases": "cell-based", "key": {"p-MEK1(S298)": {"tested_on": "p-MEK1(S298)", "test": "In vitro cellular HTRF assay for p-MEK1(S298)", "details": "cell line RT4-D6P2T, read-out: pMEK1(S298)", "from_the_text": "(§1) Some of the compounds for treatment of cancer are subject to in vitro cellular HTRF assay for p-PAK1(S144) and p-MEK1(S298). The cell line is RT4-D6P2T."}, "p-PAK1(S144)": {"tested_on": "p-PAK1(S144)", "test": "In vitro cellular HTRF assay for p-PAK1(S144)", "details": "cell line RT4-D6P2T, read-out: pPAK1(S144)", "from_the_text": "as §1"}, "OVCAR-4": {"tested_on": "OVCAR-4", "test": "Growth inhibition in cancer cell lines (CellTiter-Glo), OVCAR-4", "details": "OVCAR-4, 72 hours exposure", "from_the_text": "(§2) Methodology: 60 cell lines (CCRF-CEM, HL-60(TB), K-562, MOLT-4, RPMI-8226, SR, A549, EKVX, HOP-62, HOP-92, NCI-H226, NCI-H23, NCI-H322M, NCI-H460, NCI-H522, COLO 205, HCC-2998, HCT-116, HCT-15, HT29, KM12, SW-620, SF-268, SF-295, SF-539, SNB-19, SNB-75, U251, LOX IMV1, MALME-3M, M14, SK-MEL-2, SK− MEL-28, SK-MEL-5, UACC-257, UACC-62, IGR-OV 1, OVCAR-3, OVCAR-4, OVCAR-5, OVCAR-8, SK-OV-3, 786-0, A498, ACHN, CAKI-1, RXF 393, SN12C, TK-10, UO-31, PC-3, DU-145, MCF7, NCI/ADR-RES, MDA-MB-231, HS 578T, MDA-MB-435, MDA-MB-468, BT-549, and T-47D) are grown in RPMI-1640 medium with 10% FBS. Stock solutions of a test compound are prepared in DMSO. Concentrations of from about 0.001 μM to about 20 μM of each compound in RPM-1640 media are prepared. The test compound is added to wells containing 50 μL of cells and medium. A CellTiter-Glo (CTG) assay is carried out on the 0 hr plate to obtain a 0 hr count. Cells are exposed to the test compound for 72 hours. Following the exposure period, the plates are assayed using CTG. Luminescence is recorded on Synergy.\n(§3) As a non-limiting example, Compound 30 as described herein was tested for growth inhibition against various cancer cell lines."}, "EBC-1": {"tested_on": "EBC-1", "test": "Growth inhibition in cancer cell lines (CellTiter-Glo), EBC-1", "details": "EBC-1, 72 hours exposure"}, "NCI-H520": {"tested_on": "NCI-H520", "test": "Growth inhibition in cancer cell lines (CellTiter-Glo), NCI-H520", "details": "NCI-H520, 72 hours exposure", "from_the_text": "as §2, §3"}, "IGROV-1": {"tested_on": "IGROV-1", "test": "Growth inhibition in cancer cell lines (CellTiter-Glo), IGROV-1", "details": "IGROV-1, 72 hours exposure", "from_the_text": "as §2, §3"}, "OVCAR-3": {"tested_on": "OVCAR-3", "test": "Growth inhibition in cancer cell lines (CellTiter-Glo), OVCAR-3", "details": "OVCAR-3, 72 hours exposure", "from_the_text": "as §2, §3"}, "SKOV-3": {"tested_on": "SKOV-3", "test": "Growth inhibition in cancer cell lines (CellTiter-Glo), SKOV-3", "details": "Homo sapiens, SK-OV-3; SKOV-3, 72 hours exposure", "from_the_text": "as §2, §3"}, "SK-MES-1": {"tested_on": "SK-MES-1", "test": "Growth inhibition in cancer cell lines (CellTiter-Glo), SK-MES-1", "details": "SK-MES-1, 72 hours exposure"}}}
{"compound": "Cc1nc(-c2ccc(-c3cc4cnc(NC5CCOCC5)nc4n(CC4CCNCC4)c3=O)c(Cl)c2)no1", "note": "[drawing 396]", "values": [{"measurement": "IC50", "setting": "p-MEK1(S298)", "result": "500 to 5000", "unit": "nM"}, {"measurement": "IC50", "setting": "p-PAK1(S144)", "result": "50 to 500", "unit": "nM"}]}
{"compound": "CCn1c(=O)c(-c2ccc(-c3nccnc3C)cc2Cl)cc2cnc(NC3CCOC(C)(C)C3)nc21", "note": "(stereo not shown) [Compound 30]", "values": [{"measurement": "GI50", "setting": "OVCAR-4; Homo sapiens", "result": 2600, "unit": "nM"}, {"measurement": "Maximum Inhibition", "setting": "OVCAR-4", "result": "−50", "unit": "%"}, {"measurement": "Maximum Inhibition", "setting": "EBC-1", "result": "−13", "unit": "%"}, {"measurement": "GI50", "setting": "EBC-1; Homo sapiens", "result": 3500, "unit": "nM"}, {"measurement": "GI50", "setting": "NCI-H520; Homo sapiens", "result": 6000, "unit": "nM"}, {"measurement": "Maximum Inhibition", "setting": "NCI-H520", "result": "−17", "unit": "%"}, {"measurement": "GI50", "setting": "IGROV-1; Homo sapiens", "result": 330, "unit": "nM"}, {"measurement": "Maximum Inhibition", "setting": "IGROV-1", "result": "−50", "unit": "%"}, {"measurement": "GI50", "setting": "OVCAR-3; Homo sapiens", "result": 3100, "unit": "nM"}, {"measurement": "Maximum Inhibition", "setting": "OVCAR-3", "result": "−20", "unit": "%"}, {"measurement": "GI50", "setting": "SKOV-3", "result": 3800, "unit": "nM"}, {"measurement": "GI50", "setting": "SK-MES-1; Homo sapiens", "result": 3800, "unit": "nM"}, {"measurement": "Maximum Inhibition", "setting": "SK-MES-1", "result": "−14", "unit": "%"}]}
{"compound": "Cc1nc(-c2ccc(-c3cc4cnc(NC5CCOCC5)nc4n(Cc4cccc(CN)c4)c3=O)c(Cl)c2)no1", "note": "[drawing 379]", "values": [{"measurement": "IC50", "setting": "p-MEK1(S298)", "result": "500 to 5000", "unit": "nM"}, {"measurement": "IC50", "setting": "p-PAK1(S144)", "result": "50 to 500", "unit": "nM"}]}
{"compound": "Cc1nc(-c2ccc(-c3cc4cnc(NC5CCNC(=O)C5)nc4n(Cc4c(F)cccc4C(F)(F)F)c3=O)c(Cl)c2)no1", "note": "(stereo not shown) [drawing 382]", "values": [{"measurement": "IC50", "setting": "p-MEK1(S298)", "result": "> 5000", "unit": "nM"}, {"measurement": "IC50", "setting": "p-PAK1(S144)", "result": "500 to 5000", "unit": "nM"}]}
{"compound": "Cc1nc(-c2ccc(-c3cc4cnc(NC5CCOCC5)nc4n(CC(=O)NCc4ccncc4)c3=O)c(Cl)c2)no1", "note": "[drawing 388]", "values": [{"measurement": "IC50", "setting": "p-MEK1(S298)", "result": "> 5000", "unit": "nM"}, {"measurement": "IC50", "setting": "p-PAK1(S144)", "result": "500 to 5000", "unit": "nM"}]}
{"compound": "Cc1cncc(-c2ccc(-c3cc4cnc(N[C@@H]5CCOC5)nc4n(CCCN)c3=O)c(Cl)c2)n1", "note": "[drawing 384]", "values": [{"measurement": "IC50", "setting": "p-MEK1(S298)", "result": "500 to 5000", "unit": "nM"}, {"measurement": "IC50", "setting": "p-PAK1(S144)", "result": "500 to 5000", "unit": "nM"}]}
{"compound": "Cc1nc(-c2ccc(-c3cc4cnc(NC5CCOCC5)nc4n(CC(=O)NC4CCNC4)c3=O)c(Cl)c2)no1", "note": "(stereo not shown) [drawing 387]", "values": [{"measurement": "IC50", "setting": "p-MEK1(S298)", "result": "> 5000", "unit": "nM"}]}
{"compound": "CCn1c(=O)c(-c2ccc(-c3nccnc3C)cc2Cl)cc2cnc(NC3CCOC(C)(C)C3)nc21", "note": "(stereo not shown) [drawing 385]", "values": [{"measurement": "IC50", "setting": "p-MEK1(S298)", "result": "500 to 5000", "unit": "nM"}, {"measurement": "IC50", "setting": "p-PAK1(S144)", "result": "500 to 5000", "unit": "nM"}]}
{"compound": "CCn1c(=O)c(-c2ccc(-c3cccc(C)n3)cc2Cl)cc2cnc(N[C@H]3CC[C@H](CN(C)C)CC3)nc21", "values": [{"measurement": "IC50", "setting": "p-MEK1(S298)", "result": "500 to 5000", "unit": "nM"}, {"measurement": "IC50", "setting": "p-PAK1(S144)", "result": "500 to 5000", "unit": "nM"}]}
{"compound": "Cc1nc(-c2ccc(-c3cc4cnc(NC5CCOCC5)nc4n(Cc4cccc(OCCN)c4)c3=O)c(Cl)c2)no1", "note": "[drawing 380]", "values": [{"measurement": "IC50", "setting": "p-MEK1(S298)", "result": "500 to 5000", "unit": "nM"}, {"measurement": "IC50", "setting": "p-PAK1(S144)", "result": "500 to 5000", "unit": "nM"}]}
{"compound": "CCn1c(=O)c(-c2ccc(-c3cncc(C)n3)cc2Cl)cc2cnc(N[C@H]3CCOC3)nc21", "note": "[drawing 389]", "values": [{"measurement": "IC50", "setting": "p-MEK1(S298)", "result": "> 5000", "unit": "nM"}, {"measurement": "IC50", "setting": "p-PAK1(S144)", "result": "500 to 5000", "unit": "nM"}]}
{"compound": "CCn1c(=O)c(-c2ccc(-c3cncc(C)n3)cc2Cl)cc2cnc(NC3CCOCC3)nc21", "note": "[drawing 391]", "values": [{"measurement": "IC50", "setting": "p-MEK1(S298)", "result": "500 to 5000", "unit": "nM"}, {"measurement": "IC50", "setting": "p-PAK1(S144)", "result": "50 to 500", "unit": "nM"}]}
{"compound": "CCn1c(=O)c(-c2ccc(-c3cccnc3F)cc2Cl)cc2cnc(NC3CCOCC3)nc21", "note": "[drawing 392]", "values": [{"measurement": "IC50", "setting": "p-MEK1(S298)", "result": "500 to 5000", "unit": "nM"}, {"measurement": "IC50", "setting": "p-PAK1(S144)", "result": "500 to 5000", "unit": "nM"}]}
{"compound": "CCn1c(=O)c(-c2ccc(-c3cncc(C)n3)cc2Cl)cc2cnc(NCC3CCC(N)CC3)nc21", "note": "(stereo not shown) [drawing 383]", "values": [{"measurement": "IC50", "setting": "p-MEK1(S298)", "result": "500 to 5000", "unit": "nM"}, {"measurement": "IC50", "setting": "p-PAK1(S144)", "result": "50 to 500", "unit": "nM"}]}
{"compound": "Cc1nc(-c2ccc(-c3cc4cnc(NC5CCOCC5)nc4n(Cc4ccc(CN)cc4)c3=O)c(Cl)c2)no1", "note": "[drawing 397]", "values": [{"measurement": "IC50", "setting": "p-MEK1(S298)", "result": "500 to 5000", "unit": "nM"}, {"measurement": "IC50", "setting": "p-PAK1(S144)", "result": "50 to 500", "unit": "nM"}]}
{"compound": "CCn1c(=O)c(-c2ccc(-c3cncc(C)n3)cc2Cl)cc2cnc(NCCC3CCN(C)CC3)nc21", "note": "[drawing 390]", "values": [{"measurement": "IC50", "setting": "p-MEK1(S298)", "result": "50 to 500", "unit": "nM"}, {"measurement": "IC50", "setting": "p-PAK1(S144)", "result": "50 to 500", "unit": "nM"}]}
{"compound": "Cc1nc(-c2ccc(-c3cc4cnc(NC5CCOCC5)nc4n(CCC4CCNCC4)c3=O)c(Cl)c2)no1", "note": "[drawing 378]", "values": [{"measurement": "IC50", "setting": "p-MEK1(S298)", "result": "500 to 5000", "unit": "nM"}]}
{"compound": "Cc1nc(-c2ccc(-c3cc4cnc(NC5CCOCC5)nc4n(Cc4ccc(CCN)cc4)c3=O)c(Cl)c2)no1", "note": "[drawing 394]", "values": [{"measurement": "IC50", "setting": "p-MEK1(S298)", "result": "500 to 5000", "unit": "nM"}, {"measurement": "IC50", "setting": "p-PAK1(S144)", "result": "50 to 500", "unit": "nM"}]}
{"compound": "CN(C)C[C@@H](NC(=O)N1Cc2c(Nc3ncnc4sccc34)n[nH]c2C1(C)C)c1ccccc1", "values": [{"measurement": "IC50", "setting": "p-MEK1(S298)", "result": "500 to 5000", "unit": "nM"}, {"measurement": "IC50", "setting": "p-PAK1(S144)", "result": "50 to 500", "unit": "nM"}]}
{"compound": "Cc1nc(-c2ccc(-c3cc4cnc(NC5CCOCC5)nc4n(Cc4cccc(CCN)c4)c3=O)c(Cl)c2)no1", "note": "[drawing 395]", "values": [{"measurement": "IC50", "setting": "p-MEK1(S298)", "result": "50 to 500", "unit": "nM"}, {"measurement": "IC50", "setting": "p-PAK1(S144)", "result": "50 to 500", "unit": "nM"}]}
